Experiments:
[1] = system: carrageenan-induced edema; conditions: rat models; cited from earlier work
[2] = system: chondrocytes of the rabbit knee joint; assay: Synthesis of type II collagen by primary culture of chondrocytes (density of 116 kD band on electrophoresis); type: cell-based; conditions: for Activity of recovering the synthesis of type II collagen inhibited by arachidonic acid: fatty acid added at 300 μM
Experimental: Using the primary culture of chondrocytes of the rabbit knee joint, the effects of mead acid on the synthesis of type II collagen was compared with that of other fatty acids, in particular arachidonic acid. The mead acid used was 99% 5,8,11-cis-eicosatrienoic acid ethyl ester highly purified in the same manner as in Example 1, and for arachidonic acid, oleic acid and linoleic acid, the commercially available 99% ethyl esters thereof were used. Chondrocytes were prepared from the knee joints of 4-week old Japan white rabbits in accordance with the method of Suzuki and Shimomura [Shimomurra, Y., Yoneda, T., Suzuki, F. Osteogenesis by chondrocyte from growth cartilage of rat rib., Calcif. Tissue Int., 19:179-187, 1975]. The chondrocytes were plated at 10,000 cells/well of the 96-well plate (Iwaki Glass K.K.) in (MEM medium (50 μg/ml vitamin C, 1 ng/ml b-FGF were added) supplemented with 10% bovine calf serum, and pre-incubated for two days (5% CO2, 37° C.). The fatty acids were suspended in 0.0625% HCO-60 prior to use. As the pre-treatment with the fatty acids, the plates were divided into three groups and added thereto the solvent (0.0625% HCO-60) (group A), mead acid (the final concentration, 300 μM) (group B), and arachidonic acid (the final concentration, 300 μM) (group C), and then incubated for about 5 days while the culture medium and the fatty acids were replaced with fresh ones every two days.
Subsequently, the culture medium was replaced with αMEM medium (1 μg/ml transferrin, 1 μM dexamethasone, 2 μg/ml insulin, 50 μg/ml vitamin C) and each fatty acid (mead acid, arachidonic acid, oleic acid, and linoleic acid) was added thereto to a final concentration of 300 μM followed by incubation for seven days to synthesize extracellular matrix. The culture medium and each of the fatty acids were replaced every 2 days with freshly prepared ones. Pepsin (2 mg/ml) acetate solution was added to the plate at 200 μl/well and treated at 37° C. for 24 hours. The residue was recovered from each well and was centrifuged at 15,000 rpm for 10 minutes to form a precipitate, which was then washed once with tris-EDTA buffer (pH 8.0) and dissolved in 100 μl of the SDS sample buffer.
The amount of type II collagen synthesized was determined by electrophoresing 1/10 volume of each sample solution on the multigel 4/20 (Daiichi Kagaku K.K.) and measuring the density of the 116 kD band after staining with Cooumassie Brilliant Blue.

[3] = system: rabbit model of osteoarthritis; assay: Range of motion (ROM) of the right knee joint in rabbit models of osteoarthritis prepared using arthrodesis by cast; type: in vivo; conditions: 0.6 ml of 1 mg/ml solution/joint, right articular cavity twice per week for five weeks; solvent group 70%
Experimental: Models of osteoarthritis were prepared using arthrodesis by cast. The animals used were 12-week old male rabbits (Kbl: NZW, Kitayama Labesu K. K.). Under anesthesia by intramuscular administration of 2 mg/kg of xylazine hydrochloride (Selactal, Bayer A. G.) and 50 mg/kg of ketamine hydrochloride (Ketalar 50 for animals, Sankyo K.K.) (hereinafter referred to as “under anesthesia”), hair was cut off the right hind leg. Then after the region from the upper thigh to the toe was covered with the stockinette and cast pad (3M Medicine K.K.), the knee joint was fixed for three weeks at a stretched and bent position by casting tape (3M Medicine K.K.). […]
In accordance with Example 2, models of osteoarthritis of the knee were prepared using arthrodesis by cast and were divided into three groups of five animals per group so that the average weight and the range of motion of joints of each group became uniform. […] In accordance with Example 2, dosage samples were administered in the right articular cavity twice per week for five weeks and ROM of the joint of the right knee was measured.

[4] = group C pretreated with arachidonic acid 300 μM (FIG. 3, sample No. 11-15)

Row | Activity of recovering the synthesis of type II collagen inhibited by arachidonic acid [2, 4] | SMILES | ROM at week five after the start of administration [3] | also measured
1 | – | CCCCCCCCC=CCC=CCC=CCCCC(=O)O [5,8,11-eicosatrienoic acid] | – | Anti-inflammatory effect on carrageenan-induced edema [1]: anti-inflammatory effect
2 | – | CCCCC/C=C\C/C=C\C/C=C\C/C=C\CCCC(=O)O [arachidonic acid] | – | Effect of addition of fatty acid on synthesis of type II collagen ([2]; 300 μM, seven days, group A pretreated with solvent (FIG. 3, sample No. 1-5)): inhibited synthesis of type II collagen; Inhibition of type II collagen synthesis in group C pretreated with arachidonic acid ([2]; 300 μM, group C pretreated with arachidonic acid 300 μM (FIG. 3, sample No. 11-15)): more conspicuous
3 | not observed | CCCCCCCC/C=C\CCCCCCCC(=O)O [oleic acid] | – | –
4 | – | CCCCCCCCC=CC/C=C\CCCCC(=O)OCC [solution A, 6,9-cis-octadecadienoic acid ethyl ester] | 80.2% | –
5 | not observed | CCCCC/C=C\C/C=C\CCCCCCCC(=O)O [linoleic acid] | – | –
6 | – | CCCCCCCCC=CC/C=C\CCCCCCC(=O)OCC [solution B, 8,11-cis-eicosadienoic acid ethyl ester] | 83.6% | –

From patent publication US6765020B2, “Drugs for prevention and treatment of diseases caused by abnormalities in cartilage tissues” (Suntory Limited, priority 1995, dated 2004)
